Some test systems named below: SF-295; EKVX; MDA-MB-435; Malme-3M; SF-539; HCT-15; KM12; Hs-578T; RXF 393; RPMI-8226; MDA-MB-231; SR; IGROV-1; SK-OV-3; COLO 205; ACHN; HCC 2998; NCI-H23; SK-MEL-5; K562.
Common to all, as to assay: NCI anticancer screen, dose series, 48 h

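Five compound concentrations were applied to cells in 96-well plates for 48 hours; endpoints were derived by simple linear interpolation of the resulting dose-response curve. GI50 is the concentration that inhibits growth by half.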 Calls of active or inactive are those of the source. No stated cut-off is given here; in the data, active = GI50 up to about 1.1 µM and inactive = higher. A value given as a limit tells only on which side of the number the result lay.

As for `O=[N+]([O-])/C(C(Cl)=C(Cl)Cl)=C(/Cl)Sc1ccccc1`, the GI50 with SF-295 was 20 µM (inactive); in the experiment on EKVX, 15.6 µM (inactive); in the experiment on MDA-MB-435 it was 1.86 µM (inactive); with Malme-3M it was 1.6 µM (inactive); in the experiment on SF-539, 1.99 µM (inactive); in the experiment with HCT-15, 2.15 µM. The GI50 was 17.9 µM (inactive) in the experiment on KM12; 3.15 µM (inactive) in the experiment with Hs-578T; 2.62 µM (inactive) with RXF 393; 0.306 µM (active) with RPMI-8226; 1.86 µM (inactive) with MDA-MB-231; 0.378 µM (active) in the experiment with SR. The GI50 is 2.01 µM (inactive) with IGROV-1; 20.1 µM (inactive) with SK-OV-3; 1.23 µM (inactive) with COLO 205; 2.08 µM (inactive) in the experiment on ACHN; 2.7 µM (inactive) in the experiment with HCC 2998; 1.77 µM (inactive) in the experiment on NCI-H23. In addition, the figures for the GI50 in the experiment with SK-MEL-5 and with K562 were 2.12 µM (inactive) and 0.59 µM (active), respectively.

As to `O=C(OCCN=c1c2ccccc2ccc2ccccc12)c1ccccc1`, the GI50 in the experiment on SF-295 is > 100 µM (inactive); in the experiment with EKVX it was 29.2 µM (inactive); with MDA-MB-435 it was > 100 µM (inactive); in the experiment on Malme-3M, > 100 µM (inactive); in the experiment on SF-539 it was 50.1 µM (inactive); in the experiment with HCT-15, 63.4 µM. For the same compound, the GI50 with KM12 is 86.5 µM (inactive); with Hs-578T it was 40.3 µM (inactive); in the experiment with RXF 393 it was > 100 µM (inactive); in the experiment on RPMI-8226 it was > 100 µM (inactive); in the experiment on MDA-MB-231, 91.8 µM (inactive); in the experiment with SR, > 100 µM (inactive). Besides, the GI50 is 72.1 µM (inactive) in the experiment on IGROV-1; > 100 µM (inactive) with SK-OV-3; 92.5 µM (inactive) in the experiment on COLO 205; 97.1 µM (inactive) with ACHN; 72.8 µM (inactive) in the experiment on HCC 2998; > 100 µM (inactive) with NCI-H23. Further, the GI50 was 45 µM (inactive) with SK-MEL-5 and 38 µM (inactive) with K562.

`C=C1C(=O)O[C@@H]2C[C@@]3(C)CCCC(=C)[C@@H]3C[C@H]12.C=C1C(=O)O[C@@H]2C[C@@]3(C)CCC[C@H](C)C3=C[C@H]12`: the GI50 in the experiment on SF-295 is 11.5 µM (inactive); with EKVX, 4.78 µM (inactive); in the experiment on MDA-MB-435, 1.54 µM (inactive); in the experiment on Malme-3M it was 0.731 µM (active); with SF-539, 2.13 µM (inactive); in the experiment on HCT-15, 1.55 µM. Further, the GI50 in the experiment on KM12 was 2.7 µM (inactive); with Hs-578T, 2.92 µM (inactive); in the experiment with RXF 393, 1.56 µM (inactive); with RPMI-8226, 1.12 µM (inactive); in the experiment with MDA-MB-231 it was 2.38 µM (inactive); in the experiment with SR it was 0.494 µM (active). For the same compound, the GI50 with IGROV-1 is 2.72 µM (inactive); in the experiment with SK-OV-3 it was 9.79 µM (inactive); with COLO 205, 1.55 µM (inactive); with ACHN, 2.55 µM (inactive); with HCC 2998, 5.85 µM (inactive); in the experiment on NCI-H23 it was 2 µM (inactive). Also, the GI50 in the experiment on SK-MEL-5 was 1.6 µM (inactive); in the experiment on K562 it was 2.04 µM (inactive).

In the case of `CC1(C)CN=C(Nc2cccc(C(F)(F)F)c2)S1`, the GI50 in the experiment with SF-295 was > 100 µM (inactive); in the experiment on EKVX it was > 100 µM (inactive); with MDA-MB-435, > 100 µM (inactive); with Malme-3M, > 100 µM (inactive); with SF-539, > 100 µM (inactive); in the experiment with HCT-15, > 100 µM. The GI50 in the experiment with KM12 is > 100 µM (inactive); with Hs-578T it was > 100 µM (inactive); in the experiment on RXF 393, > 100 µM (inactive); in the experiment on RPMI-8226, > 100 µM (inactive); with MDA-MB-231, 0.684 µM (active); with SR it was 40.2 µM (inactive). The GI50 with IGROV-1, in the experiment on SK-OV-3, in the experiment with COLO 205, in the experiment on ACHN, with HCC 2998 and in the experiment on NCI-H23 was > 100 µM (inactive) in each case. Besides, the GI50 with SK-MEL-5 and with K562 was > 100 µM (inactive) each time.

As to `CC(=O)NC1C(OCc2ccccc2)OC(CO)C(O)C1OC(C)C(=O)NC(C(=O)NC(CCC(=O)Nc1ccc2c(c1)CN1C(=O)c3ccccc3C1=N2)C(N)=O)C(C)C` (stereo not given), the GI50 is > 100 µM (inactive) in the experiment with SF-295; > 100 µM (inactive) in the experiment on EKVX; > 100 µM (inactive) in the experiment on MDA-MB-435; > 100 µM (inactive) in the experiment on Malme-3M; > 100 µM (inactive) in the experiment with SF-539; > 100 µM in the experiment on HCT-15. Moreover, the GI50 in the experiment on KM12, in the experiment with Hs-578T, in the experiment with RXF 393, in the experiment on RPMI-8226, in the experiment on MDA-MB-231 and with SR was > 100 µM (inactive) in each case. In addition, the GI50 in the experiment on IGROV-1, in the experiment on SK-OV-3, in the experiment with COLO 205, in the experiment on ACHN, in the experiment on HCC 2998 and with NCI-H23 was > 100 µM (inactive) each time. For the same compound, the GI50 in the experiment with SK-MEL-5 and in the experiment with K562 was > 100 µM (inactive) each time.

Turning to `Oc1c(/N=N/c2ccccc2)c2ccccc2c2ccc3ccccc3c12`, the GI50 in the experiment with SF-295 was 50.5 µM (inactive); in the experiment on EKVX, 50.4 µM (inactive); with MDA-MB-435, > 100 µM (inactive); in the experiment on Malme-3M it was 48.3 µM (inactive); in the experiment on SF-539 it was 34.5 µM (inactive); in the experiment on HCT-15, > 100 µM. Further, the GI50 in the experiment on KM12 was > 100 µM (inactive); with Hs-578T, 62.8 µM (inactive); in the experiment with RXF 393, 56.1 µM (inactive); in the experiment on RPMI-8226, 45.6 µM (inactive); in the experiment on MDA-MB-231, 78.3 µM (inactive); in the experiment on SR, 17.9 µM (inactive). Besides, the GI50 in the experiment with IGROV-1 is > 100 µM (inactive); in the experiment with SK-OV-3, > 100 µM (inactive); in the experiment on COLO 205 it was > 100 µM (inactive); in the experiment with ACHN it was 55.3 µM (inactive); in the experiment with HCC 2998 it was > 100 µM (inactive); with NCI-H23 it was > 100 µM (inactive). Moreover, the GI50 in the experiment with SK-MEL-5 is > 100 µM (inactive); with K562, 35.3 µM (inactive).

As for `C/C1=C\[C@H](C)C[C@H](C)OC(=O)C[C@H](c2ccc(O)cc2)NC(=O)[C@@H](Cc2c(Br)[nH]c3ccccc23)N(C)C(=O)[C@H](C)NC(=O)[C@@H](C)C1` [JASPAMIDE], the GI50 in the experiment on SF-295 is 0.259 µM (active); with EKVX, 0.275 µM (active); with MDA-MB-435 it was 0.063 µM (active); in the experiment with Malme-3M, 0.148 µM (active); in the experiment with SF-539, 0.0249 µM (active); in the experiment with HCT-15 it was 0.834 µM. Further, the GI50 in the experiment with KM12 was 0.264 µM (active); in the experiment with Hs-578T, 0.0611 µM (active); with RXF 393 it was 0.0369 µM (active); in the experiment on RPMI-8226 it was 0.218 µM (active); in the experiment with MDA-MB-231, 0.0287 µM (active); with SR, 0.0578 µM (active). Also, the GI50 in the experiment on IGROV-1 is 0.114 µM (active); in the experiment on SK-OV-3, 0.185 µM (active); in the experiment with COLO 205, 0.207 µM (active); in the experiment on ACHN, 0.199 µM (active); in the experiment with HCC 2998, 0.0499 µM (active); with NCI-H23, 0.467 µM (active). Besides, the GI50 in the experiment with SK-MEL-5 was 0.158 µM (active); with K562, 0.667 µM (active).

Source of the values: ChEMBL document CHEMBL1201862, “PubChem BioAssay data set” (2004).
